# Laboratory results reported in patent publication US6627651B1, “Cyclic compounds and uses thereof” (Takeda Chemical Industries, Ltd., priority 1999, dated 2003).
row,SMILES,melting point
1,Cc1ccc(-c2ccc3c(c2)CN(C(=O)Nc2ccc(C[N+]4(C)CCCCC4)cc2)CC3)cc1.[Cl-],179 to 180 °C (dec.)
2,Cc1ccc(-c2ccc3c(c2)C=C(C(=O)Nc2ccc(C(=N)N)cc2)CCO3)cc1.Cl,294 to 296 °C
3,CCNC(=N)c1ccc(NC(=O)C2=Cc3cc(-c4ccc(C)cc4)ccc3OCC2)cc1.Cl,> 300 °C
4,"CN(Cc1ccc(NC(=O)C2CCS(=O)(=O)c3ccc(OCc4ccc(F)cc4)cc3C2)cc1)C1CCOCC1 (centres unmarked) [Compound 3, 7-(4-fluorobenzyloxy)-N-[4-[N-methyl-N-(tetrahydropyran-4-yl)aminomethyl]phenyl]-1,1-dioxo-3,4-dihydro-1-benzothiepine-4-carboxamide]",232 to 234 °C
5,"CN(Cc1ccc(NC(=O)C2=Cc3cc(OCc4cccnc4)ccc3S(=O)(=O)CC2)cc1)C1CCOCC1 [Compound 4, N-[4-[N-methyl-N-(tetrahydropyran-4-yl)aminomethyl]phenyl]-7-(3-pyridylmethoxy)-1,1-dioxo-2,3-dihydro-1-benzothiepine-4-carboxamide]",225 to 229 °C
6,"Cc1ccc(C2=Cc3cc(C(=O)Nc4ccc(CN(C)C5CCOCC5)cc4)ccc3OC2)cc1 [Compound 22, 3-(4-methylphenyl)-N-[4-[N-methyl-N-(tetrahydropyran-4-yl)aminomethyl]phenyl]-2H-1-benzopyran-6-carboxamide]",230 to 235 °C
7,"Cc1ccc(-c2ccc3cc(C(=O)Nc4ccc(CN(C)C5CCOCC5)cc4)[nH]c3c2)cc1 [Compound 23, 6-(4-methylphenyl)-N-[4-[N-methyl-N-(tetrahydropyran-4-yl)aminomethyl]phenyl]-1H-indole-2-carboxamide]",246 to 250 °C
8,"Cc1ccc(-c2ccc3cc(C(=O)Nc4ccc(CN(C)C5CCOCC5)cc4)n(C)c3c2)cc1 [Compound 24, 1-methyl-6-(4-methylphenyl)-N-[4-[N-methyl-N-(tetrahydropyran-4-yl)aminomethyl]phenyl]-1H-indole-2-carboxamide]",225 to 226 °C
9,"Cc1ccc(C2=Cc3cc(C(=O)Nc4ccc(C[N+](C)(C)C5CCOCC5)cc4)ccc3OC2)cc1.[I-] [Compound 28, N,N-dimethyl-N-[4-[[3-(4-methylphenyl)-2H-1-benzopyran-6-carbonyl]amino]benzyl]-4-tetrahydropyranylammonium iodide]",215 to 218 °C (dec.)
10,"Cc1ccc(-c2ccc3c(c2)C=C(N(C)c2ccc(CN(C)C4CCOCC4)cc2)CCO3)cc1 [Compound 34, N-[4-[(N-methyl-N-(tetrahydropyran-4-yl)aminomethyl)]phenyl]-N-[7-(4-methylphenyl)-2,3-dihydro-1-benzooxepin-4-yl]methylamine]",158 to 160 °C
11,"Cc1ccc(-c2ccc3c(c2)C=C(C(=O)NC2CCNCC2)CCO3)cc1 [Compound 54, N-(4-piperidinyl)-7-(4-methylphenyl)-2,3-dihydro-1-benzooxepine-4-carboxamide]",183 to 185 °C
12,"Cc1ccc(-c2ccc3c(c2)C=C(C(=O)NC2CCN(CC4CCCCC4)CC2)CCO3)cc1 [Compound 55, N-(1-cyclohexylmethylpiperidin-4-yl)-7-(4-methylphenyl)-2,3-dihydro-1-benzooxepine-4-carboxamide]",180 to 181 °C
13,"Cc1ccc(-c2ccc3c(c2)C=C(C(=O)NC2CCN(CC4=CCCCCCC4)CC2)CCO3)cc1 [Compound 57, N-(1-(cycloocten-1-yl)methylpiperidin-4-yl)-7-(4-methylphenyl)-2,3-dihydro-1-benzooxepine-4-carboxamide]",148 to 151 °C
14,"Cc1ccc(-c2ccc3c(c2)C=C(C(=O)NC2CCN(Cc4ccccc4)CC2)CCO3)cc1 [Compound 58, N-(1-benzylpiperidin-4-yl)-7-(4-methylphenyl)-2,3-dihydro-1-benzooxepine-4-carboxamide]",161 to 162 °C (dec.)
15,"Cc1ccc(-c2ccc3c(c2)C=C(C(=O)NC2CCN(CC4=CCCCCCCC4)CC2)CCO3)cc1 [Compound 59, N-(1-(cyclononen-1-yl)methylpiperidin-4-yl)-7-(4-methylphenyl)-2,3-dihydro-1-benzooxepine-4-carboxamide]",128 to 130 °C
16,"Cc1ccc(-c2ccc3c(c2)C=C(C(=O)NC2CCN(CCC4CCCCC4)CC2)CCO3)cc1 [Compound 60, N-(1-(2-cyclohexylethyl)piperidin-4-yl)-7-(4-methylphenyl)-2,3-dihydro-1-benzooxepine-4-carboxamide]",193 to 196 °C
17,"Cc1ccc(-c2ccc3c(c2)C=C(C(=O)NC2CCN(C)CC2)CCO3)cc1 [Compound 61, N-(1-methylpiperidin-4-yl)-7-(4-methylphenyl)-2,3-dihydro-1-benzooxepine-4-carboxamide]",180 to 182 °C
18,"Cc1ccc(-c2ccc3c(c2)C=C(C(=O)N[C@H]2CC[C@H](CN(C)C4CCOCC4)CC2)CCO3)cc1 [Compound 63, trans-7-(4-methylphenyl)-N-[4-[N-methyl-N-(tetrahydropyran-4-yl)aminomethyl]cyclohexyl]-2,3-dihydro-1-benzooxepine-4-carboxamide]",144 to 146 °C

row,SMILES,melting point
1,"Cc1ccc(-c2ccc3c(c2)C=C(C(=O)N[C@H]2CC[C@H](CN(C)C4CCOCC4)CC2)CCC3)cc1 [Compound 64, trans-2-(4-methylphenyl)-N-[4-[N-methyl-N-(tetrahydropyran-4-yl)aminomethyl]cyclohexyl]-6,7-dihydro-5H-benzocycloheptene-8-carboxamide]",163 to 165 °C
2,"Cc1ccc(-c2ccc3c(c2)C=C(C(=O)N[C@H]2CC[C@H](CN(C)C4CCN(C(=O)OC(C)(C)C)CC4)CC2)CCO3)cc1 [Compound 65, trans-N-[4-[N-(1-tert-butoxycarbonylpiperidin-4-yl)-N-methylaminomethyl]cyclohexyl]-7-(4-methylphenyl)-2,3-dihydro-1-benzooxepine-4-carboxamide]",146 to 150 °C
3,"Cc1ccc(-c2ccc3c(c2)C=C(C(=O)N[C@H]2CC[C@H](CN(C)C4CCOCC4)CC2)CO3)cc1 [Compound 67, trans-6-(4-methylphenyl)-N-[4-[N-methyl-N-(tetrahydropyran-4-yl)aminomethyl]cyclohexyl]-2H-1-benzopyran-3-carboxamide]",141 to 143 °C
4,"Cc1ccc(C2=Cc3cc(C(=O)N[C@H]4CC[C@H](CN(C)C5CCOCC5)CC4)ccc3OC2)cc1 [Compound 68, trans-3-(4-methylphenyl)-N-[4-[N-methyl-N-(tetrahydropyran-4-yl)aminomethyl]cyclohexyl]-2H-1-benzopyran-6-carboxamide]",205 to 207 °C
5,"Cc1ccc(-c2ccc3nc(C)c(C(=O)N[C@H]4CC[C@H](CN(C)C5CCOCC5)CC4)cc3c2)cc1 [Compound 70, trans-2-methyl-6-(4-methylphenyl)-N-[4-[N-methyl-N-(tetrahydropyran-4-yl)aminomethyl]cyclohexyl]quinoline-3-carboxamide]",163 to 165 °C
6,"Cc1ccc(-c2csc(/C=C/C(=O)N[C@H]3CC[C@H](CN(C)C4CCOCC4)CC3)c2)cc1 [Compound 72, (trans, E)-3-[4-(4-methylphenyl)thiophen-2-yl]-N-[4-[N-methyl-N-(tetrahydropyran-4-yl)aminomethyl]cyclohexyl]acrylamide]",180 to 183 °C
7,"Cc1ccc(-c2cncc(/C=C/C(=O)N[C@H]3CC[C@H](CN(C)C4CCOCC4)CC3)c2)cc1 [Compound 73, (trans, E)-3-[5-(4-methylphenyl)pyridin-3-yl]-N-[4-[N-methyl-N-(tetrahydropyran-4-yl)aminomethyl]cyclohexyl]acrylamide]",233 to 236 °C
8,"Cc1ccc(-c2coc(/C=C/C(=O)N[C@H]3CC[C@H](CN(C)C4CCOCC4)CC3)c2)cc1 [Compound 74, (trans, E)-3-[4-(4-methylphenyl)furan-2-yl]-N-[4-[N-methyl-N-(tetrahydropyran-4-yl)aminomethyl]cyclohexyl]acrylamide]",165 to 167 °C
9,"Cc1ccc(-c2ccc3c(c2)C=C(C(=O)N2CCC(N)CC2)CCO3)cc1 [Compound 76, 4-amino-1-(7-(4-methylphenyl)-2,3-dihydro-1-benzooxepine-4-carbonyl)piperidine]",123 to 127 °C
10,"Cc1ccc(-c2ccc3c(c2)C=C(CN2CCC(NC4CCOCC4)CC2)CCO3)cc1 [Compound 80, 1-(7-(4-methylphenyl)-2,3-dihydro-1-benzooxepin-4-yl)methyl-4-((tetrahydropyran-4-yl)amino)piperidine]",101 to 103 °C
11,"O=C(Nc1ccc(CN2CCCCC2)cc1)C1CCc2ccc(-c3ccccc3)cc2C1 (centres unmarked) [Compound 82, N-[4-(piperidinomethyl)phenyl]-7-phenyl-1,2,3,4-tetrahydronaphthalene-2-carboxamide]",185 to 187 °C
12,"C[N+]1(Cc2ccc(NC(=O)C3CCc4ccc(-c5ccccc5)cc4C3)cc2)CCCCC1.[I-] (centres unmarked) [Compound 83, 1-[4-(7-phenyl-1,2,3,4-tetrahydronaphthalene-2-carboxamido)benzyl]-1-methylpiperidinium iodide]",205 to 208 °C
13,"Cc1ccc(COc2cccc(C(=O)Nc3ccc(CN4CCCCC4)cc3)c2)cc1 [Compound 85, 3-(4-methylbenzyloxy)-4′-(piperidinomethyl)benzanilide]",153 to 155 °C
14,"O=C(Nc1ccc(CN2CCCCC2)cc1)c1cccc(OCc2cccc3ccccc23)c1 [Compound 86, 3-(1-naphthylmethoxy)-4′-(piperidinomethyl)benzanilide]",171 to 173 °C
15,"C[N+]1(Cc2ccc(NC(=O)c3cccc(OCc4ccccc4)c3)cc2)CCCCC1.[I-] [Compound 87, 1-[4-(3-benzyloxybenzoylamino)benzyl]-1-methylpiperidinium iodide]",192 to 194 °C
16,"Cc1ccc(COc2cccc(C(=O)Nc3ccc(C[N+]4(C)CCCCC4)cc3)c2)cc1.[I-] [Compound 88, 1-methyl-1-[4-[3-(4-methylbenzyloxy)benzoylamino]benzyl]piperidinium iodide]",210 to 212 °C
17,"C[N+]1(Cc2ccc(NC(=O)c3cccc(OCc4cccc5ccccc45)c3)cc2)CCCCC1.[I-] [Compound 89, 1-methyl-1-[4-[3-(1-naphthylmethoxy)benzoylamino]benzyl]piperidinium iodide]",211 to 213 °C
